The target in the assay is T1, SiE5′NT (Serendipita indica, UniProt G4T774).
T1 construct: gene PIIN_01005; untagged full-length with signal peptide and predicted GPI anchor, 35S promoter, expressed in Arabidopsis thaliana (line 303 1L3); detergent-solubilised membrane protein preparation
T1 sequence (G4T774 20-579): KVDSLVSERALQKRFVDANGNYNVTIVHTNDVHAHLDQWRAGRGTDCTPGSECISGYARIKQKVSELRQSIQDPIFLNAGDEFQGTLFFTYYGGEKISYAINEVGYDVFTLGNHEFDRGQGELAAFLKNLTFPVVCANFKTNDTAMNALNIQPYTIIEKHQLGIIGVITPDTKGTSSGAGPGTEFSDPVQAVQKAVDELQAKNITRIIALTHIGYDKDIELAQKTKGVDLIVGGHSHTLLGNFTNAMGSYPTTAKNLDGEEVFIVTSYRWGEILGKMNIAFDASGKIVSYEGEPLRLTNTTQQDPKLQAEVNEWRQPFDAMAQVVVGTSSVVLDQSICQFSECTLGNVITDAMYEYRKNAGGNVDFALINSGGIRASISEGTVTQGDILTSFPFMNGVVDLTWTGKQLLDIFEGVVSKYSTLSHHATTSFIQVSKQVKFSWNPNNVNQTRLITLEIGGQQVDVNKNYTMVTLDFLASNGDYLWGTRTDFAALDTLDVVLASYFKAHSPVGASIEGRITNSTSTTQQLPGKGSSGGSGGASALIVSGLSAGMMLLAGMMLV
Put plainly: phosphate release (EnzChek phosphate assay), membrane protein preparation of transgenic A. thaliana versus mCherry control line. The conditions noted are these: 100 μM substrate, 10 mM Tris/MES, 2 mM MgCl2, 30 mM KCl, pH 6.5. It counts as biochemical.

Regarding `Nc1ncnc2c1ncn2[C@@H]1O[C@H](COP(=O)(O)O)[C@@H](O)[C@H]1O` [AMP], the “phosphate release (EnzChek phosphate assay), membrane protein preparation of tra” value is “production of a membrane‐localized enzyme capable of hydrolyzing ATP, ADP, and AMP”.
As for `Nc1ncnc2c1ncn2[C@@H]1O[C@H](COP(=O)(O)OP(=O)(O)OP(=O)(O)O)[C@@H](O)[C@H]1O` [ATP], the entry is “production of a membrane‐localized enzyme capable of hydrolyzing ATP, ADP, and AMP”.
